# Assay results from paper PMC8518537, “N‐(Anilinoethyl)amide Melatonergic Ligands with Improved Water Solubility and Metabolic Stability” (Chemmedchem, 2021).
# Where two headings read alike, the source gives them in different places.
# Columns and labels:
# [1] = In vivo pharmacokinetic study in rat plasma; parameters: species or system Sprague‐Dawley rats; settings: for Vd / bioavailability / AUC / Cmax / clearance / half-life: male; for Vd / bioavailability: plasma; for Vd / bioavailability / F (oral bioavailability): rat; for Vd: read-out: V ss; for bioavailability / F (oral bioavailability): PO 40 mg kg^−1 vs IV 5 mg kg^−1; for bioavailability: read-out: F (oral bioavailability); for AUC / Cmax / clearance / half-life: rat plasma
# Procedure: To evaluate the in vivo behavior of the two melatonergic ligands 14 and 19, a preliminary pharmacokinetic (PK) study was carried out in male Sprague‐Dawley rats. The compounds were administered as intravenous bolus (IV) or by oral gavage (PO) at doses of 5 or 40 mg kg^−1, respectively. Quantitative analysis was carried out by UPLC/MS/MS and the plasma concentration profiles are shown in Figure 3, while the main PK parameters are listed in Table 4.
# The in vivo pharmacokinetic experiments were conducted at NiKem Research (Baranzate – Milan – Italy). PK studies were performed using Sprague‐Dawley CD (albino) male rats (7–9 weeks‐old, weight 160–200 grams, Charles River Lab. Italia, Calco). Animals were housed under standard conditions and had free access to water and standard laboratory rodent diet. Care and husbandry of animals were in conformity with the institutional guidelines, in compliance with national and international laws and policies (EEC Council Directive 86/609, OJL 358 m, 1, Dec. 122, 1987; NIH Guide for the care and Use of Laboratory Animals, NIH Publication No. 86–23, 1985). The compounds were dissolved in water containing 3 % DMSO and 20 % Encapsin (and a stechiometric amount of HCl for 14) at a concentration of 2.5 mg mL^−1 for the IV (bolus) dose, or in water containing 5 % DMSO and 10 % encapsin (and a stechiometric amount of HCl for 14) at a concentration of 4 mg mL^−1 for PO (gavage) dose. Rats were randomly assigned to four treatment groups (n=3) and received a single IV bolus dose (5 mg kg^−1) or a single oral administration (40 mg kg^−1) through oral gavage of compound 14 or 19. Serial blood samples ([…]) were collected from caudal vein at 5, 30, 60, 120, 480 and 1440 min after IV injection, or at 15, 30, 60, 120, 480 and 1440 min after PO administration. Blood samples were collected in heparinized eppendorfs (Heparin Vister 5000 U.I./mL_Marvecs Pharma), gently mixed and placed on ice; then blood was centrifuged (3500×g, at 4 °C for 15 min), the plasma was collected and immediately frozen at −80 °C until submission to UPLC/MS/MS analysis. For the sample preparation, 100 μL of plasma spiked with 5 μL of internal standard (I.S.; 19 for compound 14 and 14 for compound 19; 2.5 μg mL^−1;) were added to a SW96 deep well plate (Waters) containing 300 μL of acetonitrile. The plate was shaken for 10 min and then centrifuged at 3000 rpm for 15 min. UPLC/MS/MS analyses were performed on an Acquity UPLC, coupled with a sample organizer and interfaced with a triple quadrupole Premiere XE (Waters, Milford, USA). LC runs (inj. vol. 5 μL) were carried out at 50 °C on Acquity BEH C18 columns (1.7 μm, 2.1×50 mm) at a flow rate of 0.45 mL min^−1. Mobile phases consisted of a phase A (water) and a phase B (0.1 % formic acid in acetonitrile). The column was conditioned with 2 % phase B for 0.2 min, then brought to 100 % phase B within 0.6 min and maintained at these conditions for 1.1 min. Analyses were carried out using a positive electrospray ionization [ESI(+)] interface in multiple reaction monitoring (MRM) mode. Capillary 3.5 Kv; extractor 3 V; source T 140 °C, desolvation T 450 °C. Transitions: for compound 14 Q1/Q3 315.2/86, CV 14, CE16+315.2/238 CV 14, CE19; for I.S. (compound 19): 301.1/86 CV 14 CE16; LLOQ: 1 ng ml^−1. Transitions: for compound 19 Q1/Q3: 301.1/86CV 14 CE16; for I.S. (compound 14) 315.2/238CV 14, CE19; LLOQ: 1 ng mL^−1. Pharmacokinetic analysis was performed by non‐compartmental analysis (NCA) using the WinNonlin 5.1 software (Pharsight, Mountain View, CA, USA. Absolute oral bioavailability (F) was calculated by linear trapezoidal rule using the relationship: F=[doseIV×AUCoral o‐∞/doseoral×AUCIV o‐∞]×100.
# [2] = Metabolic stability in rat liver microsomes; format: in vitro ADME; settings: for CLi Rat LM (intrinsic clearance) / half-life at 5 μM: rat liver microsomes 1 mg protein/mL, 5 μM compound, mean±SD; for CLi Rat LM (intrinsic clearance): 37 °C; for half-life at 5 μM: NADPH-regenerating system, pH 7.4, 37 °C, read-out: t 1/2 Rat LM
# Procedure: (§3) Each compound (final concentration: 5 μM) was incubated in the presence of rat or human liver microsomes (final concentration: 1 mg protein/mL) and of a NADPH‐regenerating system (final concentrations: 2 mM NADP^+, 10 mM glucose‐6‐phosphate, 0.4 U mL^−1 glucose‐6‐phosphate dehydrogenase, 5 mM MgCl2) in a 10 mM Phosphate Buffered Saline (PBS) solution, pH 7.4, at 37 °C. Compound was added after a 10 min pre‐incubation at 37 °C and. at stated time points, depending on compound kinetics, sample aliquots were withdrawn, metabolic reaction was quenched by acetonitrile addition (1 : 2), and after a centrifugation step (9000 g, 10 min, 4 °C) the supernatant was analyzed by HPLC‐UV‐VIS.
# (§4) Apparent half‐lives (t1/2 in min) for the metabolic clearance of compounds were calculated from the pseudo first‐order rate constants (k) obtained by linear regression of the log chromatographic peak area versus time plots and are reported as means of three experiments±standard deviation. Intrinsic clearance (CLi) values of the compounds were calculated using the following equation: CLi (μL×min^−1×mg protein^−1)=k×V where V (μL×mg protein^−1)=incubation volume/mg protein added.
# (§5) Pooled rat and human liver microsomes (20 mg/mL) were supplied by BD Biosciences (BD Biosciences, Woburn, MA, USA). Acetonitrile and methanol were HPLC grade and were supplied by Sigma‐Aldrich (Sigma‐Aldrich srl, Milan, Italy). Water was freshly bidistilled before use. All other reagents were purchased in the highest purity available.
# (§6) PeakSimple 2.83 software was employed for data acquisition and HPLC peak integration. HPLC columns were a RP‐C18 Supelco Discovery (Supelco, Bellefonte, PA, USA), 5 μm, 150×4.6 mm i.d. for all compounds except 13, and a Phenomenex Gemini, 5 μm, 150×4.6 mm i.d. for compound 13 (Phenomenex). Elution conditions were optimized for each compound at a flow rate of 1 mL min^−1 employing mobile phases consisting of water and acetonitrile at different percentages, while UV detection was set at λ = 254 nm. For compound 13, the mobile phase consisted of a 10 mM ammonium acetate buffer pH 7.0 and methanol and the UV detection was set at λ = 281 nm.
# human MT2 receptors [3] = biological target: T1, human MT2 receptors (Homo sapiens, UniProt P49286); experiment: Agonist activity at MT2, cAMP assay; format: cell-based; settings: for EC50: cAMP assay, CHO cells expressing human MT2, mean±SD, triplicate; for functional profile (intrinsic activity): cAMP functional assay at MT2 (with MT1 cell impedance data of Table 3); for Emax: read-out: MT2 E max
# T1 sequence (P49286 1-362): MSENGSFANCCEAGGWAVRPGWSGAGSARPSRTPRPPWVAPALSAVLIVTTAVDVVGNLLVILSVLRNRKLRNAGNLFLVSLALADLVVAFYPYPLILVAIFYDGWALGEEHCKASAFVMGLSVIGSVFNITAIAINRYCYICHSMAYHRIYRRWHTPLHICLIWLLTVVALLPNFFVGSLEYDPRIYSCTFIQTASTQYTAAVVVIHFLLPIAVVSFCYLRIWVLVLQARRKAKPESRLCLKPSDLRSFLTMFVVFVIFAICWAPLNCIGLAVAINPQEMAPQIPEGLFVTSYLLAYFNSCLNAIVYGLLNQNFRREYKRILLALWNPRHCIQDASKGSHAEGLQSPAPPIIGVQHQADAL
# Procedure: (§1) The in vitro pharmacology experiments were conducted at Cerep (Celle‐Lévescault, France) following radioligand binding and cellular functional assays developed elsewhere.[60, 61, 62]
# (§2) To define the functional activity of the new compounds, cellular functional assays were performed on CHO cells stably expressing human MT1 or MT2 receptors. Agonist activity at MT1 receptors was evaluated using a cell impedance assay measured by cellular dielectric spectroscopy,[62] and at MT2 receptors with an cAMP assay, measured by a fluorometric method.[61] The EC50 values were determined by non‐linear regression analysis of the concentration‐response curves. Experiments were performed in triplicate.
# human MT1 receptors [4] = biological target: T2, human MT1 receptors (Homo sapiens, UniProt P48039); experiment: Agonist activity at MT1, cell impedance assay (cellular dielectric spectroscopy); format: cell-based; settings: for EC50: cell impedance assay, CHO cells expressing human MT1, mean±SD, triplicate; for Emax: read-out: MT1 E max
# Procedure: as §1, §2
# human MT1 receptors [5] = biological target: T2, human MT1 receptors; experiment: Radioligand binding, 2-[125I]iodomelatonin competition at MT1; settings: cloned human MT1 in CHO cells; from IC50 by Cheng-Prusoff; mean±SD of three determinations; read-out: MT1 K i
# Procedure: (§7) After incubation, the % of radioligand binding inhibition was determined via a scintillation counting method. The radioligand binding experiments were performed in triplicate. IC50 values were determined by nonlinear regression analysis of the competition curves using Hill equation curve fitting. The pK i values were calculated from the IC50 values in accordance with the Cheng‐Prusoff equation.[28]
# [6] = Thermodynamic solubility, shake flask method; format: physicochemical; settings: thermodynamic from solid, room temperature overnight, mean±SD, triplicate
# Procedure: Thermodynamic solubility values were measured in two different buffers (pH 1.0; pH 7.4) by the shake flask method.[65] 1 mg of each compound was placed in 1 mL of appropriate buffer and shaken at room temperature overnight. The resulting suspension was centrifuged (10 min, 10000 g, 20 °C) and the supernatant analyzed by HPLC‐UV. Solubility values were interpolated from calibration curves prepared from concentrated DMSO stock solutions of each compound. Reported solubility values are the mean of three measurements±standard deviation.
# It consisted of a LC‐10ADvp solvent delivery module, a 20 μL Rheodyne sample injector (Rheodyne LLC, Rohnert Park, CA, USA) and a SPD‐10Avp UV‐VIS detector. PeakSimple 2.83 software was employed for data acquisition and HPLC peak integration. […] Elution conditions were optimized for each compound at a flow rate of 1 mL min^−1 employing mobile phases consisting of water and acetonitrile at different percentages, while UV detection was set at λ = 254 nm.
# human MT2 receptors [7] = biological target: T1, human MT2 receptors; experiment: Radioligand binding, 2-[125I]iodomelatonin competition at MT2; settings: cloned human MT2 in CHO cells; from IC50 by Cheng-Prusoff; mean±SD of three determinations; read-out: MT2 K i
# Procedure: as §7
# [8] = Experimental lipophilicity, shake-flask n-octanol/water; format: physicochemical; settings: n-octanol/50 mM MOPS buffer pH 7.4, 25±1 °C, mean±SD of three, read-out: Log D oct,7.4
# Procedure: Chosen buffer was 50 mM zwitterionic MOPS (3‐morpholinopropanesulfonic acid), pH 7.4 to avoid ionic couple partitioning, with ionic strength adjusted to 0.15 M by KCl addition. Compounds, after partitioning overnight, and dilution of both phases with methanol, were dosed in the HPLC‐UV system, as detailed below. Reported log D oct,7.4 values are the mean of three measurements±standard deviation.
# HPLC columns were a RP‐C18 Supelco Discovery (Supelco, Bellefonte, PA, USA), 5 μm, 150×4.6 mm i.d. for all compounds except 13, and a Phenomenex Gemini, 5 μm, 150×4.6 mm i.d. for compound 13 (Phenomenex). Elution conditions were optimized for each compound at a flow rate of 1 mL min^−1 employing mobile phases consisting of water and acetonitrile at different percentages, while UV detection was set at λ = 254 nm. For compound 13, the mobile phase consisted of a 10 mM ammonium acetate buffer pH 7.0 and methanol and the UV detection was set at λ = 281 nm.
# [9] = Metabolic stability in human liver microsomes; format: in vitro ADME; settings: for CLi Human LM (intrinsic clearance) / half-life at 5 μM: human liver microsomes 1 mg protein/mL, 5 μM compound, mean±SD; for CLi Human LM (intrinsic clearance): 37 °C; for half-life at 5 μM: NADPH-regenerating system, pH 7.4, 37 °C, read-out: t 1/2 Human LM
# Procedure: as §3, §4, §5, §6
# [10] = Sprague-Dawley CD, IV bolus 5 mg kg^−1
# [11] = Sprague-Dawley CD, PO gavage 40 mg kg^−1
# [12] = buffer pH 1.0, simulated gastric fluid, pH 1.0 buffer, read-out: Solubility pH 1.0
# [13] = buffer pH 7.4, aqueous buffer, pH 7.4 buffer, read-out: Solubility pH 7.4
# [14] = Sprague-Dawley, IV bolus 5 mg kg^−1
# [15] = Sprague-Dawley, PO gavage 40 mg kg^−1
# T2 sequence (P48039 whole entry): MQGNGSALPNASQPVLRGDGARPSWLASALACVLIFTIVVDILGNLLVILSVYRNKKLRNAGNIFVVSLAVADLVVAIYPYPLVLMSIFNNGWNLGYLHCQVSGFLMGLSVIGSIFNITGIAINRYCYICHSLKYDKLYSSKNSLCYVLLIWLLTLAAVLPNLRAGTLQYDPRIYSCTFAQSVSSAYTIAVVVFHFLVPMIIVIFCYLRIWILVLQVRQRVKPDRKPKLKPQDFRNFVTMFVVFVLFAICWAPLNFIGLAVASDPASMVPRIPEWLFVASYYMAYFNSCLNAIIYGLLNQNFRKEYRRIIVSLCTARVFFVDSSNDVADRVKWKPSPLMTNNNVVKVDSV
SMILES,CLi Rat LM (intrinsic clearance) [2] [μL min^−1 mg prot^−1],half-life at 5 μM [2] [min],Ki (human MT1 receptors [5]) [nM],"solubility [6, 12] [µg/mL]","solubility [6, 13] [µg/mL]",Ki (human MT2 receptors [7]) [nM],CLi Human LM (intrinsic clearance) [9] [μL min^−1 mg prot^−1],half-life at 5 μM [9] [min],melting point [°C],logD ([8]; n-octanol/water (MOPS buffer)),F (oral bioavailability) [1],EC50 (human MT2 receptors [3]) [nM],functional profile (intrinsic activity) (human MT2 receptors [3]),Emax (human MT2 receptors [3]) [%],EC50 (human MT1 receptors [4]) [nM],Emax (human MT1 receptors [4]) [%],further results
"COc1ccc(Br)c(N(C)CCNC(C)=O)c1 [Compound 19, N ‐{2‐[(2‐Bromo‐5‐methoxyphenyl)methylamino]ethyl}acetamide]",39.6±3.1,17.6 ± 1.5,18 ± 0.7,> 1000,823 ± 34.7,2.4 ± 0.1,8.9±1.4,78.5 ± 12.2,–,–,moderate,0.83 ± 0.05,full agonist,93 ± 2,4.4 ± 0.2,94 ± 4,"Vd [1, 10]: 0.7 ± 0.1 L/kg; bioavailability ([1]; Sprague-Dawley CD): 3.6%; AUC [1, 10]: 1100 ng·h/mL; Cmax [1, 10]: 2970 ± 384 ng/mL; clearance [1, 10]: 76.4 ± 8.8 mL/min/kg; half-life [1, 10]: 13.5 ± 0.3 min; AUC [1, 11]: 319 ng·h/mL; Cmax [1, 11]: 456 ± 178 ng/mL; half-life [1, 11]: 26.2 ± 0.9 min; logD ([8]; n-octanol/water (50 mM MOPS buffer)): 1.85 ± 0.01"
"CCCNC(=O)NCCN(c1ccccc1)c1cccc(OC)c1 [Compound 6 c, 1‐{2‐[(3‐Methoxyphenyl)phenylamino]ethyl}‐3‐propylurea]",218.4±21.2,3.2 ± 0.3,57 ± 0.1,17.7 ± 0.9,14.3 ± 0.1,1.7 ± 0.08,95.7±14.7,7.4 ± 1.2,63 to 65,3.91 ± 0.02,–,–,–,–,–,–,–

# More lines, main results first:
CLi Rat LM (intrinsic clearance) [2] [μL min^−1 mg prot^−1],half-life at 5 μM [2] [min],Ki (human MT1 receptors [5]) [nM],"solubility [6, 12] [µg/mL]","solubility [6, 13] [µg/mL]",Ki (human MT2 receptors [7]) [nM],CLi Human LM (intrinsic clearance) [9] [μL min^−1 mg prot^−1],half-life at 5 μM [9] [min],melting point [°C],logD ([8]; n-octanol/water (MOPS buffer)),SMILES,F (oral bioavailability) [1],EC50 (human MT2 receptors [3]) [nM],functional profile (intrinsic activity) (human MT2 receptors [3]),Emax (human MT2 receptors [3]) [%],EC50 (human MT1 receptors [4]) [nM],Emax (human MT1 receptors [4]) [%],further results
241.4±28.5,2.9 ± 0.3,> 100,> 1000,> 1000,3.5 ± 0.05,10.8±1.2,64.9 ± 6.9,–,2.04 ± 0.01,"COc1cccc(N(CCNC(C)=O)c2cccc(CO)c2)c1 [Compound 14, N ‐{2‐[(3‐Hydroxymethylphenyl)(3‐methoxyphenyl)amino]ethyl} acetamide]",very low,6.8 ± 0.3,MT2‐selective partial agonist,71 ± 2,53 ± 0.5,32 ± 3,"Vd [1, 14]: 0.9 ± 0.2 L/kg; bioavailability ([1]; Sprague-Dawley): 0.5%; AUC [1, 14]: 1110 ng·h/mL; Cmax [1, 14]: 2760 ± 479 ng/mL; clearance [1, 14]: 76.2 ± 10.3 mL/min/kg; half-life [1, 14]: 11.5 ± 1 min; AUC [1, 15]: 43.8 ng·h/mL; Cmax [1, 15]: 75.6 ± 39.7 ng/mL; half-life [1, 15]: 19.8 ± 1.9 min; increase of rat microsomal stability compared to UCM765 ([2]; rat liver microsomes, versus UCM765): approximately 1.5 fold; increase of human microsomal stability compared to UCM765 ([9]; human liver microsomes, versus UCM765): approximately 1.5 fold"
58.0±8.2,12.2 ± 1.5,> 100,54.9 ± 1.1,40.6 ± 0.1,35 ± 0.35,12.8±1.3,55.4 ± 6.8,76 to 77,3.45 ± 0.02,"CC(=O)NCCN(c1ccc(F)cc1)c1cccc(C(F)F)c1 [Compound 10, N ‐(2‐{[3‐(Difluoromethyl)phenyl](4‐fluorophenyl)amino}ethyl)acetamide]",–,–,–,–,–,–,–
175.4±22.3,4 ± 0.5,0.7 ± 0.1,162 ± 4.4,92.5 ± 3.5,0.07 ± 0.02,17.5±2.4,40.1 ± 5.3,76 to 77,2.74 ± 0.01,"COc1cccc(N(CCNC(C)=O)c2ccsc2)c1 [Compound 11, N ‐{2‐[(3‐Methoxyphenyl)(thiophen‐3‐yl)amino]ethyl}acetamide]",–,–,–,–,–,–,–
